Columns and labels:
Mus musculus [1] = experiment: (§1) Anti-diabetic activity in overnight fasted male C57BL/6J mouse assessed as reduction in blood glucose level by measuring reduction in AUC […] at 20 mg/kg pre-administered with compound for 30 min followed by glucose bolus addition and measured upto 120 min by oral glucose tolerance test relative to control; format: functional; set-up: scale not given: the % may be the effect or the level left; settings: time <= 150 min, 2.5 h
[2] = biological target: T1, Glucose-dependent insulinotropic receptor (Homo sapiens, UniProt Q8TDV5); experiment: Agonist activity at human GPR119 expressed in CHO cells assessed as cAMP level measured after 90 mins by HTRF based assay; format: functional, cell-based
T1 sequence (Q8TDV5 whole entry): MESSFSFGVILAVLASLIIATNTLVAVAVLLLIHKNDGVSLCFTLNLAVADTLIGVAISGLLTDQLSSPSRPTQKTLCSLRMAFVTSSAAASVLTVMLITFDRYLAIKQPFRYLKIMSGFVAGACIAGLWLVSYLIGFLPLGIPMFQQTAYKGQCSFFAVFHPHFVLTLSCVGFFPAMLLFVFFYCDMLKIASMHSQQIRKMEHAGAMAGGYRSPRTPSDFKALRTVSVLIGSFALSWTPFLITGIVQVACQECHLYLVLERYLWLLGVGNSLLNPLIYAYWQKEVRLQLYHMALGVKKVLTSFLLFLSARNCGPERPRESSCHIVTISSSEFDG

Mus musculus [3] = experiment: as §1, with “at 30” for “at 20”; format: functional; set-up: scale not given: the % may be the effect or the level left; settings: time <= 150 min, 2.5 h
Mus musculus [4] = experiment: as §1, with “at 10” for “at 20”, “mg/kg once a day” for “mg/kg”; format: functional; set-up: scale not given: the % may be the effect or the level left; settings: time <= 150 min, 2.5 h
Mus musculus [5] = experiment: Anti-diabetic activity in male FATZO mouse assessed as reduction in blood glucose level by measuring reduction in AUC […] at 30 mg/kg pre-administered with compound for 30 min followed by glucose bolus addition and measured upto 120 min by oral glucose tolerance test relative to control; format: functional; set-up: scale not given: the % may be the effect or the level left; settings: time <= 150 min, 2.5 h
[6] = biological target: T1, Glucose-dependent insulinotropic receptor; experiment: Agonist activity at human GPR119; format: functional
Mus musculus [7] = experiment: Anti-diabetic activity in overnight fasted male C57BL/6J mouse assessed as reduction in blood glucose level administered twice a day preincubated with compound for 30 min followed by glucose bolus addition and measured upto 120 min by oral glucose tolerance test; format: functional, organism-based; settings: dose 3-30 mg/kg, time <= 150.0 min

| Structure (SMILES) | Activity (Mus musculus [1]) [%] | EC50 [2] [nM] | also measured |
| --- | --- | --- | --- |
| CCc1cnc(N2CCC(COc3ccc(C4=CCC(C(=O)N5CC[C@@H](O)C5)CC4)cc3)CC2)nc1 (stereo partly specified) | 13.5 | 13 |  |
| CC(C)(C)OC(=O)N1CCC(COc2ccc(C3=CCC(C(=O)NCCO)CC3)cc2)CC1 (stereo unspecified) | 6.7 | 140 |  |
| N[C@@H](CC(=O)N1CCn2c(nnc2C(F)(F)F)C1)Cc1cc(F)c(F)cc1F [SITAGLIPTIN] |  |  | Activity (Mus musculus [3]): 22%; Activity (Mus musculus [4]): 20.5%; Activity (Mus musculus [5]): 17.5% |
| CCOC(=O)c1ccc(-c2ccc(OCC3CCN(C(=O)OC(C)(C)C)CC3)cc2)cc1 |  |  | EC50 [6]: 120 nM |
| CC(C)(C)OC(=O)N1CCC(COc2ccc(C3=CCC(C(=O)NC4CC4)CC3)cc2)CC1 (stereo unspecified) |  | 40 |  |
| CCc1cnc(N2CCC(COc3ccc(C4=CCC(C(=O)N5CCC(=O)C5)CC4)cc3)CC2)nc1 (stereo unspecified) | 12.7 | 12 |  |
| CCc1cnc(N2CCC(COc3ccc(C4=CCC(C(=O)N5CC[C@H](O)C5)CC4)cc3)CC2)nc1 (stereo partly specified) | 7.2 | 26 |  |
| CN(CCO)C(=O)C1CC=C(c2ccc(OCC3CCN(C(=O)OC(C)(C)C)CC3)cc2)CC1 (stereo unspecified) | 6.8 | 14 |  |
| CCOC(=O)C1CCC(c2ccc(OCC3CCN(C(=O)OC(C)(C)C)CC3)cc2)CC1 (stereo unspecified) |  |  | EC50 [6]: 370 nM |
| CCc1cnc(N2CCC(CCCOc3cc(F)c(-c4noc(C(C)C)n4)c(F)c3)CC2)nc1 |  |  | EC50 [6]: 14 nM |
| CCOC(=O)C1CC=C(c2ccc(OCC3CCN(C(=O)OC(C)(C)C)CC3)cc2)CC1 (stereo unspecified) |  | 53 |  |
| CC(C)(C)OC(=O)N1CCC(COc2ccc(C3=CCC(C(=O)NCC(F)F)CC3)cc2)CC1 (stereo unspecified) | 10.6 | 34 |  |
| CCc1cnc(N2CCC(COc3ccc(C4=CCC(C(=O)N5CCC[C@@H]5CO)CC4)cc3)CC2)nc1 (stereo partly specified) | 16.6 | 6.8 | Activity (Mus musculus [3]): 25.8%; Activity (Mus musculus [7]): Dose-dependent-effect |
| CCc1cnc(N2CCC(COc3ccc(C4=CCC(C(=O)N5CCCC5)CC4)cc3)CC2)nc1 (stereo unspecified) | 15.9 | 27 |  |
